{
  "source": "patent US7754919B2",
  "about": "“Non-nucleoside reverse transcriptase inhibitors” (Roche Palo Alto LLC, priority 2005, dated 2010)",
  "key": {"HIV-1 RT": {"molecular_target": "HIV-1 RT (Human immunodeficiency virus type 1 group M subtype B, UniProt P03366)", "test": "Heteropolymer HIV reverse Transcriptase Assay: Inhibitor IC50 Determination", "assay_type": "biochemical", "settings": "RNA-dependent DNA polymerase activity, biotinylated DNA primer/RNA template, SPA beads, 30°C 30 min", "experimental": "Heteropolymer HIV reverse Transcriptase Assay: Inhibitor IC50 Determination\nRNA-dependent DNA polymerase activity was measured using a biotinylated primer oligonucleotide and tritiated dNTP substrate. Newly synthesized DNA was quantified by capturing the biotinylated primer molecules on streptavidin coated Scintillation Proximity Assay (SPA) beads (Amersham). The sequences of the polymerase assay substrate were: 18nt DNA primer, 5′-Biotin/GTC CCT GTT CGG GCG CCA-3′ (SEQ. ID NO. 2); 47nt RNA template, 5′-GGGUCUCUCUGGUUAGACCACUCUAGCAGUGGCGCCCGAACAGGGAC-3′ (SEQ ID NO. 1). The biotinylated DNA primer was obtained from the Integrated DNA Technologies Inc. and the RNA template was synthesized by Dharmacon. The DNA polymerase assay (final volume 50 μl) contained 32 nM biotinylated DNA primer, 64 nM RNA substrate, dGTP, dCTP, dTTP (each at 5 μM), 103 nM [^3H]-dATP (specific activity=[…]), in 45 mM Tris-HCl, pH 8.0, 45 mM NaCl, 2.7 mM Mg(CH3COO)2, 0.045% Triton X-100 w/v, 0.9 mM EDTA. The reactions contained 5 μl of serial compound dilutions in 100% DMSO for IC50 determination and the final concentrations of DMSO were 10%. Reactions were initiated by the addition of 30 μl of the HIV-1-RT enzyme (final concentrations of 1-3 nM). Protein concentrations were adjusted to provide linear product formation for at least 30 min of incubation. After incubation at 30°C for 30 min, the reaction was quenched by addition of 50 μl of 200 mM EDTA (pH 8.0) and 2 mg/ml SA-PVT SPA beads (Amersham, RPNQ0009, reconstituted in 20 mM Tris-HCl, pH 8.0, 100 mM EDTA and 1% BSA). The beads were left to settle overnight and the SPA signals were counted in a 96-well top counter-NXT (Packard). IC50 values were obtained by sigmoidal regression analysis using GraphPad Prism 3.0 (GraphPad Software, Inc.)."}},
  "note": "pIC50: −log10 of the molar value.",
  "data": [
    {"smiles": "CC(C)(CN1CCCC1)NC(=O)c1ccc(NC(=O)Cc2ccc(Br)c(Oc3cc(Cl)cc(C#N)c3)c2F)c(Cl)c1", "note": "[Compound I-45, 4-{2-[4-Bromo-3-(3-chloro-5-cyano-phenoxy)-2-fluoro-phenyl]-acetylamino}-3-chloro-N-(1,1-dimethyl-2-pyrrolidin-1-yl-ethyl)-benzamide]", "values": [
      {"measurement": "melting point", "result": 70, "unit": "°C"},
      {"measurement": "pIC50", "setting": "HIV-1 RT", "result": 8.39}
    ]},
    {"smiles": "CN1CCC(NC(=O)c2ccc(NC(=O)Cc3ccc(Br)c(Oc4cc(Cl)cc(C#N)c4)c3F)c(Cl)c2)C1", "note": "(stereo not drawn) [Compound I-50, 4-{2-[4-Bromo-3-(3-chloro-5-cyano-phenoxy)-2-fluoro-phenyl]-acetylamino}-3-chloro-N-(1-methyl-pyrrolidin-3-yl)-benzamide]", "values": [
      {"measurement": "melting point", "result": 204, "unit": "°C"},
      {"measurement": "pIC50", "setting": "HIV-1 RT", "result": 8.16}
    ]},
    {"smiles": "N#Cc1cc(Cl)cc(Oc2c(Br)ccc(CC(=O)Nc3ccc(C(=O)NC4CCS(=O)(=O)C4)cc3Cl)c2F)c1", "note": "(stereo not drawn) [Compound I-55, 4-{2-[4-Bromo-3-(3-chloro-5-cyano-phenoxy)-2-fluoro-phenyl]-acetylamino}-3-chloro-N-(1,1-dioxo-tetrahydro-1λ^6-thiophen-3-yl)-benzamide]", "values": [
      {"measurement": "melting point", "result": 236.6, "unit": "°C"},
      {"measurement": "pIC50", "setting": "HIV-1 RT", "result": 7.79}
    ]}
  ]
}
